± gives the standard deviation of the averaged measurements.

Compound in one test: C[C@@H](Oc1cc(-c2cnn(C3CCNCC3)c2)cnc1N)c1c(Cl)ccc(F)c1Cl [CRIZOTINIB]
Nature of the test: surviving fraction relative to DMSO-only wells; higher = less growth inhibition. As to conditions: exposure time: 5 days. The method in brief: (§1)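 For each tumour cell line, log-phase cells were put into 384-well plates at 250–500 cells per well, then after 24 hours exposed continuously for five days to inhibitors at 0.5, 1, 5, 10, 50, 100, 500 and 1000 nM. Viability was assessed by CellTiter-Glo luminescence, with surviving fraction expressed relative to the median of DMSO-only wells. Lines were screened three times and retained only if replicate Pearson r exceeded 0.7 and median Z' exceeded 0.3.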

Compound in a further test: C[C@]12CC[C@H](O)CC1=CC[C@@H]1[C@@H]2CC[C@]2(C)C(c3cccnc3)=CC[C@@H]12 [ABIRATERONE]
The test is described as above. As to conditions: exposure time: 5 days. The method in brief:
as §1

Turning to HCC38 BREAST, the surviving fraction was 1.27 ± 0.15 in the test with CRIZOTINIB (0.5 nM); 1.18 ± 0.06 with CRIZOTINIB (1 nM); 1.31 ± 0.069 with CRIZOTINIB (5 nM); 1.28 ± 0.041 with CRIZOTINIB (10 nM); 1.29 ± 0.13 with CRIZOTINIB (50 nM); 1.28 ± 0.13 in the test with CRIZOTINIB (100 nM). In addition, the surviving fraction in the test with CRIZOTINIB (1000 nM) came to 0.63 ± 0.09; with ABIRATERONE (0.5 nM) it was 1.21 ± 0.22; in the test with ABIRATERONE (1 nM), 1.24 ± 0.14; with ABIRATERONE (5 nM), 1.22 ± 0.31; in the test with ABIRATERONE (10 nM) it was 1.29 ± 0.38; with ABIRATERONE (50 nM), 1.18 ± 0.41. In addition, the surviving fraction with ABIRATERONE (100 nM) is 1.32 ± 0.18; with ABIRATERONE (500 nM), 1.16 ± 0.12; in the test with ABIRATERONE (1000 nM) it was 1 ± 0.14.
Turning to HMLE3 BREAST, the surviving fraction turned out to be 1.07 ± 0.043 in the test with CRIZOTINIB (0.5 nM); 1.18 ± 0.081 in the test with CRIZOTINIB (5 nM); 1.07 ± 0.089 in the test with CRIZOTINIB (10 nM); 1.05 ± 0.054 with CRIZOTINIB (50 nM); 1.04 ± 0.12 with CRIZOTINIB (100 nM); 0.828 ± 0.062 in the test with CRIZOTINIB (500 nM). Also, the surviving fraction was determined as 0.649 ± 0.046 with CRIZOTINIB (1000 nM); 0.965 ± 0.017 with ABIRATERONE (0.5 nM); 1.01 ± 0.04 in the test with ABIRATERONE (1 nM); 1.04 ± 0.063 in the test with ABIRATERONE (5 nM); 1.04 ± 0.051 with ABIRATERONE (10 nM); 1.12 ± 0.079 with ABIRATERONE (50 nM). The surviving fraction in the test with ABIRATERONE (100 nM) was 1.02 ± 0.084; with ABIRATERONE (500 nM), 1.02 ± 0.063; with ABIRATERONE (1000 nM) it was 1.04 ± 0.04.
On to HMT3552 BREAST, for which the surviving fraction with CRIZOTINIB (0.5 nM) came to 1.01 ± 0.042; with CRIZOTINIB (1 nM), 1.05 ± 0.073; in the test with CRIZOTINIB (5 nM) it was 1.04 ± 0.015; with CRIZOTINIB (10 nM), 1.06 ± 0.015; with CRIZOTINIB (50 nM), 1.07 ± 0.023; with CRIZOTINIB (100 nM), 1.18 ± 0.035. For the same test system, the surviving fraction came to 0.597 ± 0.045 in the test with CRIZOTINIB (500 nM); 0.201 ± 0.012 with CRIZOTINIB (1000 nM); 1.05 with ABIRATERONE (0.5 nM); 1.02 with ABIRATERONE (1 nM); 1.01 with ABIRATERONE (5 nM); 1.09 with ABIRATERONE (10 nM). Moreover, the surviving fraction is 1.08 with ABIRATERONE (50 nM), 1.07 in the test with ABIRATERONE (100 nM), 1.32 in the test with ABIRATERONE (500 nM) and 1.24 in the test with ABIRATERONE (1000 nM).
Regarding HS578T BREAST, the surviving fraction was 1.04 ± 0.16 with CRIZOTINIB (0.5 nM); 1.13 ± 0.17 in the test with CRIZOTINIB (1 nM); 1.13 ± 0.11 with CRIZOTINIB (5 nM); 1.14 ± 0.18 in the test with CRIZOTINIB (10 nM); 1.07 ± 0.25 with CRIZOTINIB (50 nM); 0.994 ± 0.14 with CRIZOTINIB (100 nM). The surviving fraction with CRIZOTINIB (500 nM) is 0.833 ± 0.066; with CRIZOTINIB (1000 nM), 0.722 ± 0.021; in the test with ABIRATERONE (0.5 nM), 1.06 ± 0.16; in the test with ABIRATERONE (1 nM), 0.858 ± 0.12; with ABIRATERONE (5 nM) it was 0.945 ± 0.12; in the test with ABIRATERONE (10 nM) it was 0.924 ± 0.2. The surviving fraction with ABIRATERONE (50 nM) stood at 1.04 ± 0.091; with ABIRATERONE (100 nM), 0.996 ± 0.051; with ABIRATERONE (500 nM), 0.985 ± 0.065; in the test with ABIRATERONE (1000 nM), 0.94 ± 0.037.
As for HCC70 BREAST, the surviving fraction is 1.09 ± 0.06 with CRIZOTINIB (0.5 nM); 1.1 ± 0.13 with CRIZOTINIB (1 nM); 1.16 ± 0.022 with CRIZOTINIB (5 nM); 1.18 ± 0.1 in the test with CRIZOTINIB (50 nM); 1.07 ± 0.059 in the test with CRIZOTINIB (500 nM); 0.818 ± 0.12 with CRIZOTINIB (1000 nM). Moreover, the surviving fraction in the test with ABIRATERONE (0.5 nM) is 1.1 ± 0.069; in the test with ABIRATERONE (1 nM) it was 1.02 ± 0.088; in the test with ABIRATERONE (5 nM), 1.09 ± 0.026; in the test with ABIRATERONE (10 nM), 1.11 ± 0.055; with ABIRATERONE (50 nM) it was 1.15 ± 0.13; with ABIRATERONE (100 nM), 1.14 ± 0.017. Further, the surviving fraction worked out at 1.03 ± 0.076 with ABIRATERONE (500 nM) and 0.949 ± 0.098 with ABIRATERONE (1000 nM).
As for G292 BONE, the surviving fraction with CRIZOTINIB (0.5 nM) was determined as 1.02 ± 0.037; with CRIZOTINIB (1 nM), 1.04 ± 0.055; with CRIZOTINIB (5 nM), 1.07 ± 0.012; with CRIZOTINIB (10 nM), 1.08 ± 0.038; in the test with CRIZOTINIB (50 nM) it was 0.9452 ± 0.0094; with CRIZOTINIB (100 nM) it was 0.951 ± 0.033. Also, the surviving fraction amounted to 0.634 ± 0.025 with CRIZOTINIB (500 nM); 0.41 ± 0.016 in the test with CRIZOTINIB (1000 nM); 1.02 ± 0.028 with ABIRATERONE (0.5 nM); 0.994 ± 0.03 with ABIRATERONE (1 nM); 1.06 ± 0.037 with ABIRATERONE (5 nM); 1.04 ± 0.026 with ABIRATERONE (10 nM). Also, the surviving fraction worked out at 1.05 ± 0.038 with ABIRATERONE (50 nM), 1.05 ± 0.018 with ABIRATERONE (100 nM), 1.03 ± 0.034 in the test with ABIRATERONE (500 nM) and 1.01 ± 0.029 with ABIRATERONE (1000 nM).

For the origin of these results see the supplement of paper PMC6045584.
